Experimental data reported in patent publication US6750244B2, “Compounds active at a novel site on receptor-operated calcium channels useful for treatment of neurological disorders and diseases” (NPS Pharmaceuticals, Inc., priority 1993, dated 2004).
Like-named read-outs stand apart in the source and are kept apart here.

How the values were obtained:
permanent focal ischemia = assay: Permanent focal cerebral ischemia (middle cerebral artery occlusion, suture); format: in vivo, rat; details: 1 mg/kg i.p. at 30 min and again 4 hr post-occlusion
Procedure: In the second study of focal cerebral ischemia in the rat, the middle cerebral artery was permanently occluded by passing a small piece of suture thread through the carotid artery to the region of the middle cerebral artery. Core body temperature was maintained at 37° C. Compound 4, 10 mg/kg i.p. administered immediately after the onset of the ischemic event, produced a statistically significant reduction in the volume of the brain infarct (20%) recorded 24 hr later.

dopamine uptake site = target: T1, dopamine uptake site (Cavia porcellus, UniProt H0WCX4); assay: Dopamine uptake binding assay: [3H]WIN-35,428 binding to guinea pig striatal membranes
T1 construct: from tissue; host or cells: guinea pig striatal membranes (per the assay title)

behavior [1] = assay: Behavioral effects in conscious male Wistar rats
motor performance = assay: Acute motor impairment (rotorod) in mice; details: for TD50 (motor impairment): Frings mice
Procedure: (§1) In this assay, Frings and CF1 mice were injected with test compound and placed on a knurled rod which rotated at a speed of 6 rpm. The ability of the mice to maintain equilibrium for long periods of time was determined; those mice that were unable to maintain equilibrium on the rotorod for 1 min in each of 3 trials were considered impaired.

in vivo = details: mouse, in vivo, ip
Procedure: as §1

seizure threshold = assay: i.v. Metrazol test (seizure threshold) in mice; format: in vivo; details: 10 mg/kg i.p.
focal ischemia = assay: Photothrombotic (Rose Bengal) model of focal cerebral ischemia; format: in vivo, rat; details: 10 mg/kg i.p. at 15 min, 3 hr, and again 6 hr post-occlusion
From the text: In a third model of focal cerebral ischemia in the rat, an ischemic infarct was produced by a photothrombotic method using the dye Rose Bengal.

[2] = target: T2, norepinephrine uptake site (Rattus norvegicus, UniProt Q63380); assay: Norepinephrine uptake binding assay: [3H]desipramine binding to rat cortical membranes
T2 construct: from tissue; host or cells: rat cortical membranes (per the assay title)

behavior [3] = assay: Behavioral effects in conscious beagle dogs
behavior [4] = assay: Behavioral effects in conscious male NMRI mice
serotonin uptake site = target: T3, serotonin uptake site (Rattus norvegicus, UniProt P31652); assay: Serotonin uptake binding assay: [3H]citalopram binding to rat forebrain membranes
T3 construct: from tissue; host or cells: rat forebrain membranes (per the assay title)

thermal nociception [5] = format: in vivo, rats; details: 25 mg/kg i.p.
Procedure: In this standard assay, the thermal nociceptive stimulus was 52° C. warm water with the latency to tail flick or withdrawal taken as the endpoint.

thermal nociception [6] = format: in vivo, rats; details: 25 mg/kg i.p.; remark: listed apart in the source
Procedure: In these experiments, a 52° C. hot plate was used as the nociceptive stimulus.

[7] = test system: PCP-like discriminative stimulus effects; format: in vivo, rats; details: i.p., rats
From the text: In this assay, rats who have been trained to lever press for food reinforcement must select which of two levers in their cages is correct. The only stimulus they hive for selecting the correct lever is their ability to detect whether they received a PCP or vehicle injection After about two months of training, rats become very good at discriminating PCP from vehicle injections and can then be tested with other drugs to determine if they are discriminated as PCP. When tested in this procedure, other drugs which are known to produce a PCP-like intoxication substitute for PCP. These drugs include various PCP analogs such as ketamine and the noncompetitive NMDA receptor antagonist, MK-801.

[8] = test system: maximal electroshock-induced seizures; assay: Maximal electroshock-induced seizures in rats; format: in vivo; details: Rattus norvegicus, po, read-out: ED50, maximal electroshock-induced seizures
[9] = target: NMDA receptor-ionophore complex (site labeled by [3H]MK-801); assay: Inhibition of [3H]MK-801 binding in rat cortical/hippocampal washed membrane preparations; details: read-out: IC50 (μM) vs. [3H]MK-801; rat cortical/hippocampal washed membranes
sound-induced seizures = assay: Sound-induced seizures in Frings mice (reflex epilepsy); format: in vivo; details: Mus musculus, Frings mice
[10] = test system: mean arterial pressure, heart rate, ECG; assay: Cardiovascular activity in conscious beagle dogs
NMDA receptor [11] = details: rat hippocampal slices
Procedure: Glutamate-mediated transmission at synapses of Schaffer collateral fibers and CA1 pyramidal cells was measured in slices of rat brain containing the hippocampus. This assay measures electrophysiologically the postsynaptic depolarization caused by the presynaptic release of glutamate, and can readily distinguish synaptic transmission mediated by NMDA or AMPA receptors.

[12] = test system: acetic acid-induced writhing; format: in vivo, mice; details: 10 mg/kg i.p.
[13] = test system: delayed rectifier potassium channel; assay: Inhibition of delayed rectifier potassium channel in cultured N1E-115 neuroblastoma cells; format: cell-based; details: read-out: Delayed rectifier potassium channel: estimated IC50
[14] = test system: central muscarinic cholinergic receptor; format: binding, rat
[15] = test system: formalin-induced flinching; format: in vivo, Sprague-Dawley rats; details: 10 mg/kg i.p.
L-type calcium channel = test system: T4, L-type calcium channel; assay: Inhibition of KCl depolarization-induced increases in intracellular calcium in cultured rat cerebellar granule cells; format: cell-based; details: cultured rat cerebellar granule cells; read-out: L-type calcium channel: estimated IC50, KCl depolarization-induced increases in intracellular calcium
T4 construct: L-type calcium channel: estimated IC50, KCl depolarization-induced increases in intracellular calcium; other: cultured
From the text: The ability of arylalkylamines to inhibit dihydropyridine-sensitive Ca^2+ channels was examined in cerebellar granule cells and a rat aortic smooth muscle cell line, A7r5 cells.

[16] = test system: mean arterial blood pressure; details: i.p.
induction of LTP = test system: induction of LTP; parameters: species or system rat; details: at 100 μM
[17] = Motor toxicity (TD50) in rats; details: rat, in vivo, po
temporary focal ischemia = assay: Temporary focal cerebral ischemia (middle cerebral artery occlusion, suture withdrawn after 2 hr); format: in vivo, rat; details: two doses of 1 mg/kg i.p.
Procedure: In a fourth model of focal cerebral ischemia in the rat, the middle cerebral artery was temporarily occluded by passing a small piece of suture thread through the carotid artery to the region of the middle cerebral artery. The suture thread was withdrawn after an ischemic period of 2 hr. Core body temperature was maintained at 37° C. […]

[18] = test system: maximal electroshock-induced seizures; assay: Maximal electroshock-induced seizures in mice; format: in vivo; details: mice
NMDA receptor [19] = assay: Inhibition of NMDA/glycine-induced increases in intracellular calcium in cultured rat cerebellar granule cells (RCGC); format: cell-based; details: NMDA/glycine-induced increases in intracellular calcium, cultured rat cerebellar granule cells; read-out: IC50 (μM) vs. NMDA
[20] = 3 mg/kg i.v. (60 sec bolus injection)
[21] = 10 mg/kg i.v. (60 sec bolus injection)

T3 sequence (P31652 whole entry): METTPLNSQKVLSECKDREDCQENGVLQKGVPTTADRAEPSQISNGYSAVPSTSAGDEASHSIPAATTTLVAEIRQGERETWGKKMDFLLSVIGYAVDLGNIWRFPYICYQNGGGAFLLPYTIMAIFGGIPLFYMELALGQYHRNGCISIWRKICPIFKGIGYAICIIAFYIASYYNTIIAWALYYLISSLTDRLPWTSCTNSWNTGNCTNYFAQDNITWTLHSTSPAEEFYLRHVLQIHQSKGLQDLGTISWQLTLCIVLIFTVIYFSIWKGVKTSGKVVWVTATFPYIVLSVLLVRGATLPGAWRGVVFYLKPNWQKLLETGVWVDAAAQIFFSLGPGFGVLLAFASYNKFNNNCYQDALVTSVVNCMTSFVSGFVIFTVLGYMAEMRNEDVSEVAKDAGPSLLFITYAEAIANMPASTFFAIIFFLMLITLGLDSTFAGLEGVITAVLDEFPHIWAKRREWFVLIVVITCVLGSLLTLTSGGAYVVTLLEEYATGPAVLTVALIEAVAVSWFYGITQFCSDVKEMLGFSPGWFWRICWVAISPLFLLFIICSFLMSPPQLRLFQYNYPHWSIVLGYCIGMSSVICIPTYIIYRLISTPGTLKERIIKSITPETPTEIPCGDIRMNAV
T2 sequence (Q63380 1-617): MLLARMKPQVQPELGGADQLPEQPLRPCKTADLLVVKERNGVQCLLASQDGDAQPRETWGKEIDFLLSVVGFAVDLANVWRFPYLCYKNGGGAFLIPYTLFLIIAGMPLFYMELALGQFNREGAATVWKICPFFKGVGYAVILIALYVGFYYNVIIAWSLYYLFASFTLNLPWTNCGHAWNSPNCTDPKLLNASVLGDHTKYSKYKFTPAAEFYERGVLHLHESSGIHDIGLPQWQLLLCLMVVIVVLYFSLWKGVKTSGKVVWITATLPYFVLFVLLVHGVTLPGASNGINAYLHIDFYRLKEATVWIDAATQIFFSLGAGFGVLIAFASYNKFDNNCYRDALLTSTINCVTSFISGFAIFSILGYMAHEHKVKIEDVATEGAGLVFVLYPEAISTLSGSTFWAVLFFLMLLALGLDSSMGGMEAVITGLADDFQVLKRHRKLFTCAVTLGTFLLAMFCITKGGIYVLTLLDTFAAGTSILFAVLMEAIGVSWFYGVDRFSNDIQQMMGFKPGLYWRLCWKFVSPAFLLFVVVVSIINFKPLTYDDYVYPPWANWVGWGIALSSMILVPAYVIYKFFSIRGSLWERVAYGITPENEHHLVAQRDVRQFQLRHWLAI
T1 sequence (H0WCX4 1-619): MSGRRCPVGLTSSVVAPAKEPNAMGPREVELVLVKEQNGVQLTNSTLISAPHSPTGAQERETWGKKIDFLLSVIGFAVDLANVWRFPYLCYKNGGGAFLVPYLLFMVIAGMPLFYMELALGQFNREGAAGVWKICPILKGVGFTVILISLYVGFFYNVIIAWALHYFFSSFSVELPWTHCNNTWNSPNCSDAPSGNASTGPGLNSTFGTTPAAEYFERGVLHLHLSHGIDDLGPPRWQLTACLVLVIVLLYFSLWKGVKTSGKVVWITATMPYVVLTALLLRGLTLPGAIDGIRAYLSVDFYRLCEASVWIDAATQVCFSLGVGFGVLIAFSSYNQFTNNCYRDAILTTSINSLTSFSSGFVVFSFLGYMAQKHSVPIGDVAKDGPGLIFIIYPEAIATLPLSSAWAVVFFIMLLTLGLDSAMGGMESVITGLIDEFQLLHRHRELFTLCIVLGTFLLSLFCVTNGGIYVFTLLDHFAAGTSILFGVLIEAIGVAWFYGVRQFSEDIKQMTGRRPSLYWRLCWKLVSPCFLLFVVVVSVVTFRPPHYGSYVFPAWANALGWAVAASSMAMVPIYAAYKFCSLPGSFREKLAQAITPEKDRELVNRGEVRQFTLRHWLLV

## NCCC(c1cccc(F)c1)c1cccc(F)c1 [Compound 20, 3,3-bis(3-fluorophenyl)-1-propylamine]
Permanent focal ischemia
  reduction in the infarct volume: 24%
Dopamine uptake site; at 0.1 μM
  Monoamine uptake binding assays: dopamine uptake binding assay, percent block: 6% at
Dopamine uptake site; at 10 μM
  Monoamine uptake binding assays: dopamine uptake binding assay, percent block: 0.1^f81% at
Behavior [1]; 2 mg/kg i.v.
  behavioral effects: no behavioral effects
Behavior [1]; 32 mg/kg i.v.
  behavioral effects: Straub tail, convulsions, and death
Behavior [1]; doses ranging from 4 to 16 mg/kg i.v.
  behavioral effects: excitation, stereotypies, increased reactivity to touch, increased muscle tone, and tremor
Motor performance; i.p.
  TD50 (motor impairment): 19.9 mg/kg
Motor performance; oral
  TD50 (motor impairment): 21.8 mg/kg
Motor performance; mice, 30 mg/kg p.o.
  motor impairment: motor impairment
In vivo
  TD50: 20.6 mg/kg
Seizure threshold
  seizure threshold, i.v. Metrazol test: an increase in seizure threshold
Focal ischemia
  reduction in the infarct volume: 50%
[2]; at 0.1 μM
  Monoamine uptake binding assays: norepinephrine uptake binding assay, percent block: 5% at
[2]; at 10 μM
  Monoamine uptake binding assays: norepinephrine uptake binding assay, percent block: 0.1^g58% at
Behavior [3]; [20]
  behavioral effects: increased motor activity, agitation and anxiousness, slight tremors, licking of the mouth, whining, and urination
Behavior [3]; [21]
  behavioral effects: dilated pupils, whole body tremors, incoordination, licking of the mouth, salivation, panting, rapid blinking of the eyes, whining, anxiousness, seizures, and death
Behavior [4]; 8 mg/kg i.p.
  behavioral effects: excitation and increased reactivity to touch
Behavior [4]; 64 mg/kg i.p.
  behavioral effects: convulsions and death
Behavior [4]; 2 and 4 mg/kg i.p.
  behavioral effects: no behavioral effects
Behavior [4]; 16 and 32 mg/kg i.p.
  behavioral effects: excitation, Straub tail, tremor, stereotypies, hypothermia, and mydriasis
Behavior [4]; 128 and 256 mg/kg i.p.
  behavioral effects: convulsions and death
Serotonin uptake site; at 0.1 μM
  Monoamine uptake binding assays: serotonin uptake binding assay, percent block: 10^g28% at
Serotonin uptake site; at 10 μM
  Monoamine uptake binding assays: serotonin uptake binding assay, percent block: 0.1^h94% at
Thermal nociception [5]
  analgesic activity, rat 48° C. tail flick test: no significant analgesic activity
Thermal nociception [6]
  analgesic activity, rat 52° C. hot plate test: no significant analgesic activity
[7]
  no generalization to PCP at doses up to the behaviorally active dose of: ≤ 10 mg/kg
[8]
  ED50: 33.6 mg/kg
[9]
  IC50: 0.252 µM
sound-induced seizures; ip
  ED50: 2.1 mg/kg
sound-induced seizures; oral
  ED50: 9.7 mg/kg
[10]; 0.3 mg/kg i.v. (60 sec bolus injection)
  cardiovascular activity: no significant cardiovascular activity
[10]; 1 mg/kg i.v. (60 sec bolus injection)
  cardiovascular activity: no significant cardiovascular activity
[10]; [20]
  heart rate: transient increases in mean arterial pressure and heart rate
  mean arterial pressure: transient increases in mean arterial pressure and heart rate
[10]; [21]
  heart rate: larger magnitude and longer duration effects
  mean arterial pressure: larger magnitude and longer duration effects
NMDA receptor [11]
  Suppression of NMDA Receptor-Mediated Synaptic Transmission (concentration which suppresses): 30 to 300 µM
[12]
  analgesic activity against acetic acid-induced abdominal writhing: significant analgesic activity, not blocked by naloxone
[13]
  IC50: 1000 to 10000 nM
[14]; at 0.1 μM
  Central muscarinic cholinergic receptor: percent block of [3H]QNB binding: 8% at
[14]; at 10 μM
  Central muscarinic cholinergic receptor: percent block of [3H]QNB binding: 0.190% at
[15]
  analgesic activity, rat formalin test: significant analgesic activity, not blocked by the opiate receptor antagonist naloxone
L-type calcium channel
  IC50: 2200 nM
[16]
  no significant cardiovascular activity in anesthetized rats at doses up to: ≤ 10 mg/kg
Induction of LTP
  LTP Assay (block of the induction of LTP): block at 100
[17]
  TD50: 55.9 mg/kg
Temporary focal ischemia; 2 hr after occlusion (time of reperfusion) and 6 hr later
  reduction in the infarct volume: 43%
Temporary focal ischemia; immediately after middle cerebral artery occlusion and 6 hr later
  reduction in the infarct volume: 51%
[18]; Mus musculus, ip
  ED50: 20.1 mg/kg
[18]; oral (p.o.)
  no significant anticonvulsant activity against maximal electroshock-induced seizures at doses up to: up to 30 mg/kg
NMDA receptor [19]
  IC50: 0.07 µM
